Results reported in US20190389903A1, “INSULIN A-CHAIN DERIVED PEPTIDE FRAGMENT AND PHARMACEUTICAL COMPOSITION FOR PREVENTING OR TREATING DIABETES OR DIABETIC WOUNDS, CONTAINING THE SAME” (SUPADELIXIR INC., priority 2017, published 2019).

Columns and labels:
Type in all cases: cell-based
[1] = system: insulin receptor; experiment: 2-NBDG glucose uptake after inhibition of insulin receptor expression using siRNA; conditions: peptide 1 μM, 5 min; siRNA 10 nM or 30 nM vs no treatment; HaCaT cells; FIG. 6
Chain of insulin receptor (P06213 28-758 limits assumed): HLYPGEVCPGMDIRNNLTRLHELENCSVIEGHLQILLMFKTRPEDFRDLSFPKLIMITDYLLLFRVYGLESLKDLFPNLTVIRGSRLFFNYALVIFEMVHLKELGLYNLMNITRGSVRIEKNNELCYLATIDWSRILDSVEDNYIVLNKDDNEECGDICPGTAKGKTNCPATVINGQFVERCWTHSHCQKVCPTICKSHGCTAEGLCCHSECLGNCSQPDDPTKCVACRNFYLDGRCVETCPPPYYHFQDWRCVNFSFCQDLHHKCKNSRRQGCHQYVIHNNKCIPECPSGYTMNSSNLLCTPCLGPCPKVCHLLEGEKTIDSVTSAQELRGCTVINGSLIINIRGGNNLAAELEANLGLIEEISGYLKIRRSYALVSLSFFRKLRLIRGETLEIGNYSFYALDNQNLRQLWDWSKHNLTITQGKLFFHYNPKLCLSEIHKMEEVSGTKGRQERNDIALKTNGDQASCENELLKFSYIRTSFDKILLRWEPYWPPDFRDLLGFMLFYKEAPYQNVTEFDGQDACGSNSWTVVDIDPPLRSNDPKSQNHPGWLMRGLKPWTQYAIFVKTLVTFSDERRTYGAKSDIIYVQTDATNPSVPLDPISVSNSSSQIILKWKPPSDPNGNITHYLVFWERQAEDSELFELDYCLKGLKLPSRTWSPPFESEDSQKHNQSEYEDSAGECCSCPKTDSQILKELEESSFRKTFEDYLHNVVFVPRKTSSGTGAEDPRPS
Chain of insulin receptor (P06213 763-1382 partner limits assumed): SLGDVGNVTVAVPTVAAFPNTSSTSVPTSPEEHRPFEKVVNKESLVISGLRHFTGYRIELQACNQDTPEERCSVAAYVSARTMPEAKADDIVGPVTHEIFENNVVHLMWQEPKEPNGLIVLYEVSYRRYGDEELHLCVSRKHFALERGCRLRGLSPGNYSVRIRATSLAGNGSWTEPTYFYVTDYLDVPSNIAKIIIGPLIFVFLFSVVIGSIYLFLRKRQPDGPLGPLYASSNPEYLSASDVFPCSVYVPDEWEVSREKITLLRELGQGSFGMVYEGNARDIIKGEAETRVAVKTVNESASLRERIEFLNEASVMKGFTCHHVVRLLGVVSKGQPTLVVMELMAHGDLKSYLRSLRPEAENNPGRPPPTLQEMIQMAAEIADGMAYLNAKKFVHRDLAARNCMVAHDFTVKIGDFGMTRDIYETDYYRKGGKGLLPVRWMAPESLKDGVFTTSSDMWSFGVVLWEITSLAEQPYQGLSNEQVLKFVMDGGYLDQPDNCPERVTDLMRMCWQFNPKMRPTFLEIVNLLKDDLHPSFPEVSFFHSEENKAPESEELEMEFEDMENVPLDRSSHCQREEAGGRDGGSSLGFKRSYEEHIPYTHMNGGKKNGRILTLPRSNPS
Description: Based on the above test results, in order to evaluate whether, like insulin, the peptide of the present invention enhances glucose uptake through the insulin receptor, insulin receptor expression was inhibited using siRNA, after which 2-NBDG glucose uptake testing was performed. HaCaT cells (CLS 300493) were cultured in a DMEM serum medium until the cells reached 50-60% confluency, followed by transient transfection using the insulin receptor siRNA (Santa Cruz, Calif., USA) (no treatment, 10 nM treatment, or 30 nM treatment) and lipofectamine RNAiMAX (Invitrogen) in accordance with the manufacturer's protocol to thus inhibit insulin receptor expression, after which the cells were treated for 5 min using the peptide of SEQ ID NO: 3 at a concentration of 1 μM. A mixed solution of a 2-NBDG reagent and a glucose uptake enhancer was prepared in accordance with the manufacturer's protocol, after which the cells were treated therewith for 1 hr, washed with the supplied cold 1× analysis buffer, and observed using a confocal laser microscope (Olympus FluoView FW1000; Olympus, Tokyo, Japan).

[2] = system: HaCaT cells; experiment: Cell proliferation test (CCK-8); conditions: 0.1, 1 and 10 μM in serum-free media, 24, 48 and 72 hr, FIG. 4
Description: For cell proliferation testing, 5×10^3 HaCaT cells (CLS 300493) were seeded in each well of a 96-well plate, and then treated with a solution containing the peptide of SEQ ID NO: 3 (total volume: 90 μl) such that the concentrations in serum-free media were 0.1, 1 and 10 μM. Cell proliferation for 24, 48 and 72 hr was observed using a microplate reader (Versa Max, USA). For measurement, treatment was performed for 2 hr using 10 μl of a CCK-8 (cell counting kit-8) solution at the same time every day.

[3] = system: insulin receptor; experiment: Immunofluorescence analysis of endocytosis of FITC-conjugated peptide in HaCaT cells; conditions: FITC-conjugated peptide 1 μM, 5, 15, 30, 60 min tested, FIG. 2A
Description: In order to evaluate whether, like insulin, the peptide of the present invention induces endocytosis by binding to the insulin receptor, immunofluorescence analysis was performed. A fluorescent material (FITC) was conjugated to the peptide of SEQ ID NO: 3. HaCaT cells (CLS 300493) were pretreated in the same manner as in Test Example 1, added with the peptide solution of SEQ ID NO: 3 having the fluorescent material conjugated thereto such that the final concentration was 1 μM, and then treated for 5 min, 15 min, 30 min, and 60 min. The cells were washed three times with a PBS solution and then mounted onto a slide to give a test specimen, which was then observed using a confocal laser microscope (Olympus FluoView FW1000; Olympus, Tokyo, Japan). […] The insulin binds to the insulin receptor in the cells, followed by endocytosis (internalization) and then degradation.

[4] = system: HaCaT cells; experiment: Cell migration test (Culture-Insert 2 Well); conditions: peptide 0.01, 0.1, 1 μM or Humulin R 1 μM for 5 min, observed after 10 hr and 13 hr, FIG. 3
Description: For cell migration testing, a Culture-Insert 2 Well (Ibidi™), having two separate culture spaces therein, was used. When cells are cultured on the above plate, the cells are attached to both sides, between which an empty space is formed, followed by removal of the insert well and further culturing, whereby the cells of the two sides migrate to the empty space of the plate. HaCaT cells (CLS 300493) were cultured on the above plate until the cells reached 90% confluency and then the insert well was removed, after which the cells were treated for 5 min with the peptide of SEQ ID NO: 3 (0.01 μM, 0.1 μM, 1 μM) or Humulin R (1 μM), and washed with PBS, after which the medium was replaced with a cell culture medium (DMEM serum medium). After 10 hr and 13 hr, cell migration was observed through a phase contrast microscope.

[5] = system: HaCaT cells; experiment: 2-NBDG glucose uptake analysis; conditions: 0.001, 0.01, 0.1 μM in serum-free media, 5 min, FIG. 5
Description: 2-NBDG glucose, which is a fluorescent deoxyglucose analogue, is introduced into cells by a glucose transporter, like glucose, but accumulates without actual metabolism, and thus the extent of glucose uptake may be determined based on the accumulated amount of fluorescence. A 2-NBDG glucose uptake kit (Biovision) was used for 2-NBDG glucose uptake analysis. Specifically, 3×10^4 HaCaT cells (CLS 300493) were seeded in each well of a 24-well plate, cultured in a 5% CO2 incubator at 37° C. for 24 hr with a DMEM serum medium, washed with PBS, and treated with the peptide of SEQ ID NO: 3 and Humulin R such that the concentrations in serum-free media were 0.001 μM, 0.01 μM, and 0.1 μM, followed by incubation for 5 min. A mixed solution of a 2-NBDG reagent and a glucose uptake enhancer was prepared in accordance with the manufacturer's protocol, after which the cells were treated therewith for 1 hr, washed with the supplied cold 1× analysis buffer, and observed using a confocal laser microscope (Olympus FluoView FW1000; Olympus, Tokyo, Japan).

[6] = system: insulin receptor; experiment: RNA interference: endocytosis after insulin receptor siRNA transfection in HaCaT cells; conditions: FITC-conjugated peptide 1 μM, 5 min, siRNA 10 nM or 30 nM vs no treatment, FIG. 2B
Description: Based on the above test results, in order to determine whether the effect of the peptide of the present invention on endocytosis is mediated by the insulin receptor, RNA interference was analyzed. HaCaT cells (CLS 300493) were cultured in a DMEM serum medium until the cells reached 50-60% confluency, followed by transient transfection using the insulin receptor siRNA (Santa Cruz, Calif., USA) (no treatment, 10 nM treatment, or 30 nM treatment) and lipofectamine RNAiMAX (Invitrogen) in accordance with the manufacturer's protocol to thus inhibit the insulin receptor expression, after which the cells were treated for 5 min using the peptide of SEQ ID NO: 3 having the fluorescent material conjugated thereto at a concentration of 1 μM. The fluorescence intensity of each group was observed using a confocal laser microscope (Olympus FluoView FW1000; Olympus, Tokyo, Japan).

[7] = system: physical interaction between Grb2 and SOS1; experiment: Insulin-like activity: Grb2-SOS1 physical interaction by PLA (proximity ligation assay) in HaCaT cells; conditions: 1 μM, 5 min, Humulin R at same concentration, FIG. 1
Description: When the insulin signal is transmitted into cells, the physical interaction between Grb2 and SOS1 is increased. After treatment of the cells with the peptide of the present invention, the physical interaction between Grb2 and SOS1 was measured through PLA (proximity ligation assay) and thus insulin-like activity was evaluated. 4.5×10^4 HaCaT cells (CLS 300493) were seeded in a DMEM serum medium in each well of a 24-well microplate and cultured in a 5% CO2 incubator at 37° C. for 24 hr, after which the peptide solution of Example 2 was added such that the peptide concentration of SEQ ID NOS: 1 to 6 in the medium was 1 μM, followed by incubation for 5 min under the same conditions. As a positive control, Humulin R was treated at the same concentration. A control received no treatment. The cells of each well were washed with PBS, treated with 2% formaldehyde for 15 min to thus fix the same, and then treated with 0.1% TritonX-100 for 5 min to thus increase antibody permeability into the cells. […] The physical interactions of the Grb2 and SOS1 antibodies were quantified by measuring the PLA signals detected in individual cells using a confocal laser microscope (Olympus FluoView FW1000; Olympus, Tokyo, Japan).

[8] = system: glucose transporter (GLUT4); experiment: Translocation of glucose transporter to cell membrane by immunofluorescence; conditions: HaCaT cells; 0.001, 0.01 and 0.1 μM in serum-free DMEM, 5 min; FIG. 7
Description: In addition, the translocation of the glucose transporter to the cell membrane in HaCaT cells was evaluated through immunofluorescence analysis. Specifically, HaCaT cells (CLS 300493) were treated with the peptide of SEQ ID NO: 3 and Humulin R (positive control) at concentrations of 0.001, 0.01 and 0.1 μM in a serum-free DMEM medium for 5 min. The cells were washed with a PBS solution, treated with a GLUT4 antibody (Santa Cruz, Calif., USA) for 1 hr, treated with rhodamine red for 40 min, and observed using a confocal laser microscope (Olympus FluoView FW1000; Olympus, Tokyo, Japan).

| Substance | Glucose uptake (2-NBDG) in group transiently transfected with insulin receptor siRNA [1] | Cell proliferation [2] | Time after treatment at which highest endocytosis (fluorescence) was observed [3] | Cell migration [4] | Glucose uptake (2-NBDG) [5] | Incidence of endocytosis in group transiently transfected with insulin receptor siRNA [6] | Grb2/SOS1 antibody interaction (PLA signals) compared to positive control Humulin R [7] | Amount of glucose transporter (GLUT4) in the cell membrane [8] |
| --- | --- | --- | --- | --- | --- | --- | --- | --- |
| Cys-Ser-Leu (CSL; Peptide fragment) [SEQ ID NO: 3] | reduced | increased in a concentration-dependent manner | 5 min | increased in a concentration-dependent manner | increased in a concentration-dependent manner | reduced | significantly higher antibody interaction than the positive control | increased in the cell membrane in a concentration-dependent manner |
| Humulin R: recombinant insulin preparation (injection), used as positive control [reference compound] |  |  |  | increased | increased in a concentration-dependent manner |  |  | increased in the cell membrane in a concentration-dependent manner |
